Measurements as given in PubChem BioAssay AID330 (DTP/NCI, 2004).
Values joined by “and” are separate entries in the source; they are usually repeats but may differ in a detail not shown here. Equal entries are not always repeated. Toxic doses and inconclusive results are not listed. The calls were made as follows: active = survival T/C of 150% or more; inactive = T/C below 125% in these data.

Tested on: P388 leukemia ip, CD2F1 mice, survival T/C
Assay: NCI In Vivo Anticancer Drug Screen. Data for tumor model P388 Leukemia (intraperitoneal) in CD2F1 (CDF1) mice
Conditions: endpoint: median survival time, higher = longer survival
Summary of the method: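 Mice carrying the transplanted tumor received test compound or vehicle. Survival was recorded in each group, and the value is the treated-group measurement divided by that of the vehicle-treated control group.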

[1] = dose: 50.0 mg/kg/injection, schedule: Q01DX005 (ip), vehicle: saline with Tween-80
[2] = dose: 100.0 mg/kg/injection, schedule: Q01DX005 (ip), vehicle: saline with Tween-80
[3] = dose: 200.0 mg/kg/injection, schedule: Q01DX005 (ip), vehicle: saline with Tween-80

Measured: T/C

CC1OCC(O)C(C(O)C(=O)CN(Cc2ccccc2)Cc2ccccc2)O1 (configuration not stated)
inactive: [1] 99 % of control | [2] 99 % of control | [3] 91 % of control

CC(=O)OC(C)/C=C\C#N (configuration not stated)
inactive: dose: 15.0 mg/kg/injection, schedule: Q01DX005 (ip), vehicle: saline 98 % of control and 104 % of control and 86 % of control | dose: 30.0 mg/kg/injection, schedule: Q01DX005 (ip), vehicle: saline 98 % of control and 100 % of control and 96 % of control

Nc1ccc(N)cc1
inactive: dose: 5.0 mg/kg/injection, schedule: Q01DX009 (ip), vehicle: saline with Tween-80 95 % of control | dose: 5.0 mg/kg/injection, schedule: Q04DX003 (ip), vehicle: saline with Tween-80 104 % of control | dose: 10.0 mg/kg/injection, schedule: Q01DX009 (ip), vehicle: saline with Tween-80 100 % of control | dose: 10.0 mg/kg/injection, schedule: Q04DX003 (ip), vehicle: saline with Tween-80 104 % of control | dose: 20.0 mg/kg/injection, schedule: Q01DX009 (ip), vehicle: saline with Tween-80 100 % of control | dose: 20.0 mg/kg/injection, schedule: Q04DX003 (ip), vehicle: saline with Tween-80 104 % of control

CC(C)Cc1nccs1.CC(C)Cc1nccs1.CC(C)Cc1nccs1.CC(C)Cc1nccs1.[Cl][Rh][Cl]
inactive: dose: 25.0 mg/kg/injection, schedule: Q01DX001 (ip), vehicle: Klucel (hydroxypropylcellulose) (HPC) 108 % of control | dose: 50.0 mg/kg/injection, schedule: Q01DX001 (ip), vehicle: Klucel (hydroxypropylcellulose) (HPC) 100 % of control | dose: 100.0 mg/kg/injection, schedule: Q01DX001 (ip), vehicle: Klucel (hydroxypropylcellulose) (HPC) 112 % of control

CCCN(CCC)c1ccc(C(=O)Oc2c(C)cccc2OC)cc1
inactive: dose: 50.0 mg/kg/injection, schedule: Q01DX005 (ip), vehicle: Klucel (hydroxypropylcellulose) (HPC) 93 % of control | dose: 100.0 mg/kg/injection, schedule: Q01DX005 (ip), vehicle: Klucel (hydroxypropylcellulose) (HPC) 102 % of control | dose: 200.0 mg/kg/injection, schedule: Q01DX005 (ip), vehicle: Klucel (hydroxypropylcellulose) (HPC) 90 % of control

CCOC(=O)C(C#N)(CCC(=NC(C)(C)C)Nc1c(Cl)cccc1Cl)CCC(=NC(C)(C)C)Nc1c(Cl)cccc1Cl (configuration not stated)
inactive: dose: 50.0 mg/kg/injection, schedule: Q01DX009 (ip), vehicle: saline with Tween-80 105 % of control | dose: 100.0 mg/kg/injection, schedule: Q01DX009 (ip), vehicle: saline with Tween-80 101 % of control | dose: 200.0 mg/kg/injection, schedule: Q01DX009 (ip), vehicle: saline with Tween-80 92 % of control

CC1CC(=O)c2c(CO)nn(CCCO)c2C1 (configuration not stated)
inactive: dose: 15.0 mg/kg/injection, schedule: Q01DX005 (ip), vehicle: Klucel (hydroxypropylcellulose) (HPC) 101 % of control | dose: 30.0 mg/kg/injection, schedule: Q01DX005 (ip), vehicle: Klucel (hydroxypropylcellulose) (HPC) 102 % of control | dose: 60.0 mg/kg/injection, schedule: Q01DX005 (ip), vehicle: Klucel (hydroxypropylcellulose) (HPC) 101 % of control | dose: 60.0 mg/kg/injection, schedule: Q01DX005 (ip), vehicle: saline 101 % of control

O=c1oc2cc(O)ccc2c2oc3ccccc3c12
inactive: dose: 6.2 mg/kg/injection, schedule: Q01DX007 (ip), vehicle: carboxymethylcellulose (CMC) 91 % of control | dose: 12.5 mg/kg/injection, schedule: Q01DX007 (ip), vehicle: carboxymethylcellulose (CMC) 91 % of control | dose: 25.0 mg/kg/injection, schedule: Q01DX007 (ip), vehicle: carboxymethylcellulose (CMC) 100 % of control

O=P(c1ccccc1)(c1ccccc1)c1ccccc1.[Cl][Sn]([c]1ccccc1)([c]1ccccc1)[c]1ccccc1
inactive: dose: 100.0 mg/kg/injection, schedule: Q04DX003 (ip), vehicle: saline 100 % of control | dose: 200.0 mg/kg/injection, schedule: Q04DX003 (ip), vehicle: saline 106 % of control | dose: 400.0 mg/kg/injection, schedule: Q04DX003 (ip), vehicle: saline 118 % of control

CC/C(=N\NC(N)=NC)c1ccc(Cl)cc1
inactive: dose: 25.0 mg/kg/injection, schedule: Q04DX002 (ip), vehicle: saline 101 % of control

C/C=C1/CN2CCC1CC2C(O)c1ccnc2ccc(OCCO)cc12 (configuration not stated)
inactive: dose: 50.0 mg/kg/injection, schedule: Q01DX005 (ip), vehicle: saline 97 % of control | dose: 100.0 mg/kg/injection, schedule: Q01DX005 (ip), vehicle: saline 93 % of control | dose: 200.0 mg/kg/injection, schedule: Q01DX005 (ip), vehicle: saline 94 % of control

c1ccc(CNc2ncccn2)nc1
inactive: [1] 100 % of control | [2] 96 % of control | [3] 100 % of control

CC(=O)[O][Sn]([CH3])([CH3])[CH3]
inactive: dose: 0.37 mg/kg/injection, schedule: Q01DX009 (ip), vehicle: saline 112 % of control | dose: 0.75 mg/kg/injection, schedule: Q01DX009 (ip), vehicle: saline 112 % of control

O=c1[nH]/c(=C/c2ccccc2)c(=O)[nH]/c1=C/C=C/c1ccccc1
inactive: dose: 25.0 mg/kg/injection, schedule: Q01DX009 (ip), vehicle: Klucel (hydroxypropylcellulose) (HPC) 107 % of control | dose: 50.0 mg/kg/injection, schedule: Q01DX009 (ip), vehicle: Klucel (hydroxypropylcellulose) (HPC) 104 % of control | dose: 100.0 mg/kg/injection, schedule: Q01DX009 (ip), vehicle: Klucel (hydroxypropylcellulose) (HPC) 102 % of control
